Where a name gives a salt, the structure may show the parent alone.

Sequence of DDR1 kinase (Q08345 19-876 isoform Q08345-2 limits assumed): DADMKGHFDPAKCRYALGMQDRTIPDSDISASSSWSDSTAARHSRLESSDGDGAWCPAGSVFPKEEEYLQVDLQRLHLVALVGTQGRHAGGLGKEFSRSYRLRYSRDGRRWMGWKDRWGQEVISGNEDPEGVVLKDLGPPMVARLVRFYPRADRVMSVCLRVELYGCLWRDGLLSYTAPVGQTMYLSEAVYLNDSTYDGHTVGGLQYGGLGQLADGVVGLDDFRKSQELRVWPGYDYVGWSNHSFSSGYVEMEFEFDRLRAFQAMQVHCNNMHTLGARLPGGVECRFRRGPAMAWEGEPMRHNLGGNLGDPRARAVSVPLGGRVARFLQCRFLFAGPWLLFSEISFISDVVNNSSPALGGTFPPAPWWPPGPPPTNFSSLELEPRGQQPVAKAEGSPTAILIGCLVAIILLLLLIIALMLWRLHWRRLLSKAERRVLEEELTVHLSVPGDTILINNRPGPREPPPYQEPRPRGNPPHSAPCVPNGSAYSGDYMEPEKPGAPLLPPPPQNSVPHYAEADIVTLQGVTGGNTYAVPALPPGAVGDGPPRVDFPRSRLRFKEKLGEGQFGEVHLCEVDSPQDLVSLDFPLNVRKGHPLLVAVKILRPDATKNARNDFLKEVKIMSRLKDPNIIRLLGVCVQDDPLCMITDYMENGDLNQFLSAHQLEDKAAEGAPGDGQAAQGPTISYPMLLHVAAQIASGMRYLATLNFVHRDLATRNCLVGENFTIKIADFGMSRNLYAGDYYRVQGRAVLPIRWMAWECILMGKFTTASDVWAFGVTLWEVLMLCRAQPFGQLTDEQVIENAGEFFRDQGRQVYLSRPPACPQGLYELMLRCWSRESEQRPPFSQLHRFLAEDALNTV

The experiment concerns the target DDR1 kinase (Homo sapiens, UniProt Q08345). Put plainly: Evaluation of DDR1 kinase inhibition (LANCE Ultra TR-FRET kinase assay). Details: purchased Carna Biosciences 08-113. The note with it: DDR1 protein 0.5 nM, LANCE Ultra ULight-poly GAT substrate, 2 hours at room temperature, duplicate; read-out: DDR-1 IC50. In kind it is biochemical. Background: TR-FRET usually uses a lanthanide donor and a delayed reading to cut background.
Consider `CC1(C)CCCN1C(=O)Cn1nc(C2CN(C(=O)c3ccnc(N)c3)C2)c2c(F)cc(F)cc21` [Compound E-127, 2-{3-[1-(2-aminopyridine-4-carbonyl)azetidin-3-yl]-4,6-difluoro-1H-indazol-1-yl}-1-(2,2-dimethylpyrrolidin-1-yl)ethan-1-one], for which the 50% inhibitory concentration (IC50) (commonly the concentration needed to halve the response being measured) worked out at 11 nM.
For `Nc1cc(C(=O)N2CC(c3nn(Cc4nnc(C(F)(F)F)o4)c4cccc(F)c34)C2)ccn1` [Compound E-128, 4-[3-(4-fluoro-1-{[5-(trifluoromethyl)-1,3,4-oxadiazol-2-yl]methyl}-1H-indazol-3-yl)azetidine-1-carbonyl}pyridin-2-amine] the value was 180 nM; for `COc1cnccc1C(=O)N1CC(c2nn(CC(=O)N3CCC[C@H]3C(F)(F)F)c3cc(F)cc(F)c23)C1` [Compound E-133, 2-{4,6-difluoro-3-[1-(3-methoxypyridine-4-carbonyl)azetidin-3-yl)-1H-indazol-1-yl}-1-[(28)-2-(trifluoromethyl)pyrrolidin-1-yl]ethan-1-one], 23 nM; for `Nc1cc(C(=O)N2CCC(c3nn(Cc4ccc(C(F)(F)F)nc4)c4cccc(F)c34)CC2)ccn1` [Compound E-134, 4-[4-(4-fluoro-1-([6-(trifluoromethyl)pyridin-3-yl]methyl)-1H-indazol-3-yl)piperidine-1-carbonyl]pyridin-2-amine], 110 nM.
Take `Nc1cc(C(=O)N2CC(c3nn(Cc4noc(C5CCOCC5)n4)c4cccc(F)c34)C2)ccn1` [Compound E-137]: the IC50 stood at 34 nM.
For `Nc1cc(C(=O)N2CC(c3nn(Cc4nc(-c5ccncc5)no4)c4cccc(F)c34)C2)ccn1` [Compound E-138, 4-[3-(4-fluoro-1-{(S-(pyridin-4-yl)-1,2,4-oxadiazol-5-yl]methyl}-1H-indazol-3-yl)azetidine-1-carbonyl]pyridin-2-amine] the value was 50 nM.
Turning to `O=C(c1ccc2[nH]ncc2c1)N1CC(c2nn(CC(=O)N3CCC[C@H]3C(F)(F)F)c3cc(F)cc(F)c23)C1` [Compound E-140, 2-{4,6-difluoro-3-[1-(1H-indazole-5-carbonyl)azetidin-3-yl]-1H-indazol-1-yl}-1-[(28)-2-(trifluoromethyl)pyrrolidin-1-yl]ethan-1-one], the IC50 came out at 0.8 nM.
For `O=C(c1ccc2[nH]ncc2n1)N1CC(c2nn(CC(=O)N3CCC[C@H]3C(F)(F)F)c3cc(F)cc(F)c23)C1` [Compound E-141], the 50% inhibitory concentration (IC50) turned out to be 5 nM.
In the case of `O=C(c1ccncc1F)N1CC(c2nn(CC(=O)N3CCC[C@H]3C(F)(F)F)c3cc(F)cc(F)c23)C1` [Compound E-142, 2-{4,6-difluoro-3-[1-(3-fluoropyridine-4-carbonyl)azetidin-3-yl]-1H-indazol-1-yl]-1-[(2S)-2-(trifluoromethyl)pyrrolidin-1-yl]ethan-1-one], the IC50 turned out to be 7.9 nM.
As for `O=C(c1ccncc1Cl)N1CC(c2nn(CC(=O)N3CCC[C@H]3C(F)(F)F)c3cc(F)cc(F)c23)C1` [Compound E-143, 2-{3-[1-(3-chloropyridine-4-carbonyl)azetidin-3-yl]-4,6-difluoro-1H-indazol-1-yl}-1-[(28)-2-(trifluoromethyl)pyrrolidin-1-yl]ethan-1-one], the figure is 4.1 nM; as for `Nc1cc(C(=O)N2CC(c3nn(CC(=O)N4CCC[C@H]4C(F)(F)F)c4ccc(F)c(Cl)c34)C2)ccn1` [Compound E-144, 2-{3-[1-(2-aminopyridine-4-carbonyl)azetidin-3-yl]-4-chloro-5-fluoro-1H-indazol-1-yl}-1-[(2S)-2-(trifluoromethyl)pyrrolidin-1-yl]ethan-1-one], 1.4 nM.
On to `Nc1cc(C(=O)N2CC(c3nn(Cc4noc(C5(C(F)(F)F)CCC5)n4)c4cccc(F)c34)C2)ccn1` [Compound E-146, 4-{3-[4-fluoro-1-({5-[1-(trifluoromethyl)cyclobutyl]-1,2,4-oxadiazol-3-yl}methyl)-1H-indazol-3-yl]azetidine-1-carbonyl}pyridin-2-amine hydrochloride], for which the IC50 was 0.4 nM.
As for `Nc1cc(C(=O)N2CC(c3nn(Cc4noc(C5(C(F)(F)F)CC5)n4)c4cccc(F)c34)C2)ccn1` [Compound E-147], the figure is 0.3 nM; as for `Nc1cc(C(=O)N2CC(c3nn(Cc4noc(-c5ccccc5F)n4)c4cccc(F)c34)C2)ccn1` [Compound E-148, 4-[3-(4-fluoro-1-i[5-(2-fluorophenyl)-1,2,4-oxadiazol-3-yl]methyl}-1H-indazol-3-yl)azetidine-1-carbonyllpyridin-2-amine], 1.9 nM; as for `Nc1cc(C(=O)N2CC(c3nn(Cc4ccc(C(F)(F)F)cn4)c4cncc(F)c34)C2)ccn1` [Compound E-150], 350 nM.
For `Nc1cc(C(=O)N2CC(c3nn(Cc4ccc(C(F)(F)F)cc4)c4cncc(F)c34)C2)ccn1` [Compound E-151, 4-[3-(4-fluoro-1-{[4-(trifluromethyl)phenyl]methyl}-1H-pyrazolo[3,4-c]pyridin-3-yl)azetidine-1-carbonyl]pyridin-2-amine] the value was 160 nM; for `Nc1cc(C(=O)N2CC(c3nn(CC#Cc4ccccc4)c4cc(F)cc(F)c34)C2)ccn1` [Compound E-152, 4-{3-[4,6-difluoro-1-(3-phenylprop-2-yn-1-yl)-1H-indazol-3-yl]azetidine-1-carbonyl)pyridin-2-amine], 90 nM.
Turning to `Nc1cc(C(=O)N2CC(c3nn(Cc4noc(-c5ccc(F)cn5)n4)c4cccc(F)c34)C2)ccn1` [Compound E-153, 4-{3-(4-fluoro-1-{[5-(5-fluoropyridin-2-yl)-1,2,4-oxadiazol-3-yl]methyl}-1H-indazol-3-yl)azetidine-1-carbonyl]pyridin-2-amine], the 50% inhibitory concentration (IC50) stood at 140 nM.
As to `Cc1ccc(-c2nc(Cn3nc(C4CN(C(=O)c5ccnc(N)c5)C4)c4c(F)cccc43)no2)nn1` [Compound E-154, 4-[3-(4-fluoro-1-{[5-(6-methylpyridazin-3-yl)-1,2.4-oxadiazol-3-yl}methyl}-1H-indazol-3-yl)azetidine-1-carbony1]pyridin-2-amine], the concentration for half-maximal inhibition (IC50) is 270 nM.
For the molecule `Nc1cc(C(=O)N2CC(c3nn(CC(=O)N4CCC[C@H]4C(F)(F)F)c4cc(F)cc(F)c34)C2)c(F)cn1` [Compound E-155], the IC50 was 2.4 nM.
As for `Nc1cc(C(=O)N2CC(c3nn(CC#CC4CC4)c4cc(F)cc(F)c34)C2)ccn1` [Compound E-156], the figure is 12 nM; as for `Nc1cc(C(=O)N2CC(c3nn(CC4CN(c5ccccc5)C4)c4cc(F)cc(F)c34)C2)ccn1` [Compound E-157, 4-(3-{4,6-difluoro-1-[(1-phenylazetidin-3-yl)methyl)-1H-indazol-3-yl}azetidine-1-carbonyl)pyridin-2-amine], 350 nM.
For `Nc1cc(C(=O)N2CC(c3nn(CC(=O)N4CCCc5ccccc54)c4cc(F)cc(F)c34)C2)ccn1` [Compound E-158, 2-{3-[1-(2-aminopyridine-4-carbonyl)azetidin-3-yl]-4,6-difluoro-1H-indazol-1-yl}-1-(1,2,3,4-tetrahydroquinolin-1-yl)ethan-1-one] the value was 0.6 nM.
Consider `Nc1cc(C(=O)N2CC(c3nn(CC(=O)N4CCOc5ccccc54)c4cc(F)cc(F)c34)C2)ccn1` [Compound E-159, 2-{3-{1-(2-aminopyridine-4-carbonyl)azetidin-3-yl]-4,6-difluoro-1H-indazol-1-yl]-1-(3,4-dihydro-2H-1,4-benzoxazin-4-yl)ethan-1-one], for which the half-inhibitory concentration (IC50) is 1.2 nM.
As for `Nc1cc(C(=O)N2CC(c3nn(Cc4noc(-c5ccccc5F)n4)c4cncc(F)c34)C2)ccn1` [Compound E-160, 4-[3-(4-fluoro-1-{[5-(2-fluorophenyl)-1,2,4-oxadiazol-3-yl]methyl}-1H-pyrazolo[3,4-c]pyridin-3-yl)azetidine-1-carbonyl]pyridin-2-amine], the figure is 140 nM; as for `Nc1cc(C(=O)N2CC(c3nn(CC(=O)N4CCc5ccc(Br)cc54)c4cc(F)cc(F)c34)C2)ccn1` [Compound E-161], 0.3 nM; as for `O=C(C1CCOCC1)N1CC(c2nn(CC(=O)N3CCC[C@H]3C(F)(F)F)c3cc(F)cc(F)c23)C1` [Compound E-162, 2-{4,6-difluoro-3-[1-(oxane-4-carbonyl)azetidin-3-yl]-1H-indazol-1-yl}-1-[(2S)-2-(trifluoromethyl)pyrrolidin-1-yl]ethan-1-one], 320 nM.
`O=C(c1cn[nH]c1)N1CC(c2nn(CC(=O)N3CCC[C@H]3C(F)(F)F)c3cc(F)cc(F)c23)C1` [Compound E-164, 2-(4,6-difluoro-3-[1-(1H-pyrazole-4-carbonyl)azetidin-3-yl]-1H-indazol-1-yl}-1-[(28)-2-(trifluoromethyl)pyrrolidin-1-yl]ethan-1-one]: the IC50 is 200 nM.
As for `Cc1[nH]ncc1C(=O)N1CC(c2nn(CC(=O)N3CCC[C@H]3C(F)(F)F)c3cc(F)cc(F)c23)C1` [Compound E-165, 2-{4,6-difluoro-3-[1-(5-methyl-1H-pyrazole-4-carbonyl)azetidin-3-yl]-1H-indazol-1-yl}-1-[(28)-2-(trifluoromethyl)pyrrolidin-1-yl]ethan-1-one], the 50% inhibitory concentration (IC50) was 29 nM.
For `O=C(c1cn[nH]c1C(F)(F)F)N1CC(c2nn(CC(=O)N3CCC[C@H]3C(F)(F)F)c3cc(F)cc(F)c23)C1` [Compound E-166, 2-(4,6-difluoro-3-{1-[5-(trifluoromethyl)-1H-pyrazole-4-carbonyl]azetidin-3-yl}-1H-indazol-1-yl)-1-[(2S)-2-(trifluoromethyl)pyrrolidin-1-yl]ethan-1-one] the value was 150 nM; for `Cc1cc2c(C3CN(C(=O)c4ccnc(N)c4)C3)nn(Cc3ccc(C(F)(F)F)cc3)c2cn1` [Compound E-168, 4-[3-(5-methyl-1-{[4-(trifluoromethyl)phenyl]methyl]-1H-pyrazolo[3,4-c]pyridin-3-yl)azetidine-1-carbonyl]pyridin-2-amine], 64 nM; for `Nc1cc(C(=O)N2CC(c3nn(Cc4nc(-c5ccncc5F)no4)c4cncc(F)c34)C2)ccn1` [Compound E-170], 220 nM.
As for `Nc1cc(C(=O)N2CC(c3nn(CC4Cc5ccccc5C4)c4cc(F)cc(F)c34)C2)ccn1` [Compound E-171, 4-(3-{1-[(2,3-dihydro-1H-inden-2-yl)methyl]-4,6-difluoro-1H-indazol-3-yl}azetidine-1-carbonyl)pyridin-2-amine], the figure is 34 nM.

For the origin of these results see patent publication EP4624465A1, “COMPOUND SERVING AS DDR1 KINASE INHIBITOR, AND MEDICINE” (Nippon Shinyaku Co., Ltd., priority 2022, dated 2024).
